We go through 16 compounds from US20070142270A1, “Aryl Sulfonic Pyridoxines as Antiplatelet Agents” (priority 2004, published 2007).

Like-named read-outs stand apart in the source and are kept apart here.

By IC50 is commonly meant the concentration that inhibits the measured activity by half. The low end stands for greater potency, the high end for weaker potency.

The target in assay [1] is T1, human Factor Xa (fXa) (Homo sapiens, UniProt P00742).
T1 construct: purchased Haematologic Technologies Inc. (Essex Junction, Vt.)
T1 sequence (P00742 235-488 limits assumed): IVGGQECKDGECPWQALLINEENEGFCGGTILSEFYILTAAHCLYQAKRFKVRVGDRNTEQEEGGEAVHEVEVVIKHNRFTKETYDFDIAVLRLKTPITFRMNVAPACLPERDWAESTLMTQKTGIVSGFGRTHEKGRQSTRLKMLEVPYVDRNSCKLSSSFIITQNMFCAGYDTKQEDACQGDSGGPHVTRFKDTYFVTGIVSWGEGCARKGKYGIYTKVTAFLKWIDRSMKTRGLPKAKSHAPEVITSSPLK
T1 sequence (P00742 41-179 partner limits assumed): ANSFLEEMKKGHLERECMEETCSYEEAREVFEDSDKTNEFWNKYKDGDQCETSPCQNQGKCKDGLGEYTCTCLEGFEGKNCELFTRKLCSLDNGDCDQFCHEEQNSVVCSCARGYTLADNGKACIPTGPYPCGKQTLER
Nature of the assay: Inhibition of serine protease activity, factor Xa, chromogenic substrate Pefachrome Xa. The format is biochemical. The following applies: 2 nM human Factor Xa, 300 μM substrate, pH 7.5. Here is the method:
(§1) The enzymes factor Xa (fXa), thrombin (factor IIa or fIIa), and trypsin were purchased from Haematologic Technologies Inc. (Essex Junction, Vt.). The substrates Pefachromes Xa, Th, and Try were purchased from Centerchem Inc. (Stamford, Conn.). Varying concentrations of the sulfonamide compounds were incubated for 30 min at room temperature with purified activated human enzyme in the appropriate buffer. Various concentrations of the corresponding synthetic substrate were added, and activity was measured at 37° C. by monitoring absorbance at 405 nm for 15 min with a Flurostar Optima plate reader. […] For controls, the appropriate percentage of solvent was used instead of test compound. The specific activity (ΔA405/min/nM protein), and the percent activity was calculated for each data point. The IC50 was calculated by linear regression of log[test compound] vs. % activity. The enzyme activity of the sulfonamide compound was determined using the Enzyme Kinetics Module of Sigmaplot 8.0 (SPSS Inc.)
The final concentration of human Factor Xa was 2 nM in a Tris/NaCl buffer (pH 7.5) containing 0.25% (w/v) polyethylene glycol (MW 8000). The substrate employed was Pefachrome Xa.

The target of assay [2] is T2, human thrombin (factor IIa, fIIa) (Homo sapiens, UniProt P00734).
T2 construct: purchased Haematologic Technologies Inc. (Essex Junction, Vt.)
Briefly: Inhibition of serine protease activity, thrombin, chromogenic substrate Pefachrome Th. The format is biochemical. To be noted: 2 nM human thrombin, 300 μM substrate, pH 8.3. On the procedure:
as §1
The final concentration of human thrombin was 2 nM in a Tris/NaCl buffer (pH 8.3) containing 0.125% (w/v) bovine serum albumin. The substrate used was Pefachrome Th.

Assay [3] deals with human trypsin. Nature of the assay: Inhibition of serine protease activity, trypsin, chromogenic substrate Pefachrome Try. The format is biochemical. To be noted: 2 nM human trypsin, 300 μM substrate, pH 7.5. On the procedure:
as §1
The final concentration of human trypsin was 2 nM in a Tris/NaCl buffer (pH 7.5) containing 0.25% (w/v) bovine serum albumin and 20 μM CaCl2. The substrate used was Pefachrome Try.

Assay [4] concerns platelets (platelet rich plasma). Briefly: Inhibition of platelet aggregation in platelet rich plasma (Chrono-log aggregometer). The format is cell-based. The following applies: human PRP; for inhibition at 250 µM: compound concentration 250 μM; for inhibition at 100 µM: compound concentration 100 μM. On the procedure: Platelet poor plasma (PPP) was obtained by centrifuging the remainder of the sample after the platelets were removed at 800×g for about 10 minutes. The PRP was adjusted to a count of 280×10^9/L using a mixture of PRP and PPP. The platelets (200 μL) were incubated with the test compounds (25 μL) adjusted to various concentrations ([…]) for about 30 minutes at room temperature (approximate final platelet count in the incubation mixture of 250×10^9/L). The samples were incubated for about 3 minutes at about 37° C., and then transferred to the mixing wells of a Chrono-log 4 channel aggregometer (Chrono-log Corp., Havertown, Pa.). After baselines were established, the agonist (25 μL of 40 μM ADP (Sigma, St. Louis, Mo.) or 25 μL of 50 μg/mL and 10 μg/mL collagen (Helena Laboratories, Beaumont, Tex.) or 25 μL of 120 μM thrombin receptor activating peptide (TRAP) (Sigma)) was then added. Aggregation was monitored for 5 minutes at 37° C. with stirring (1000 rpm). The amplitude and slope of each tracing were calculated to determine the amount of aggregation. Control samples were performed using only solvent. The % reduction in aggregation was calculated for each sample compared to the proper solvent control.

[5] abbreviates: agonist ADP 4 μM, read-out: % Reduction in Aggregation, ADP (4 μM).
Setting [6] is: agonist TRAP 12 μM, read-out: % Reduction in Aggregation, TRAP (12 μM).
The mark [7] stands for this setting: agonist collagen 1 μg/mL, read-out: % Reduction in Aggregation, Collagen (1 μg/mL).
The mark [8] stands for this setting: agonist collagen 5 μg/mL, read-out: % Reduction in Aggregation, Collagen (5 μg/mL).

In the case of `Cc1ncc(CNc2ccc(-c3ccccc3S(=O)(=O)NC(C)(C)C)cc2)c(CO)c1O` [Compound 2, 4′-[(5-Hydroxy-4-hydroxymethyl-6-methyl-pyridin-3-ylmethyl) -amino]-biphenyl-2-sulfonic acid tert-butylamide], the IC50 was 329 µM in assay [1], over 1000 µM in assay [2] and over 1000 µM in assay [3].

In the case of `Cc1ncc(CNc2ccc(-c3ccccc3S(N)(=O)=O)cc2)c(CO)c1O` [Compound 3, 4′-[(5-Hydroxy-4-hydroxymethyl-6-methyl-pyridin-3-ylmethyl)-amino]-biphenyl-2-sulfonic acid amide], the inhibition at 250 µM in assay [4] (setting [5]) is 0%; in assay [4] (setting [6]) it was 6%; in assay [4] (setting [7]), 0%; in assay [4] (setting [8]), 5%. The concentration for half-maximal inhibition (IC50) in assay [1], in assay [2] and in assay [3] was over 1000 µM throughout.

Take `Cc1ncc(CNC(=O)c2ccc(-c3ccccc3S(=O)(=O)NC(C)(C)C)cc2)c(CO)c1O` [Compound 5, 2′-tert-Butylsulfamoyl-biphenyl-4-carboxylic acid (5-hydroxy-4-hydroxymethyl-6-methyl-pyridin-3-ylmethyl)-amide]: the IC50 in assay [1] was 362 µM; in assay [2] it was over 1000 µM; in assay [3], over 1000 µM.

As to `Cc1ncc(CNC(=O)c2ccc(-c3ccccc3S(N)(=O)=O)cc2)c(CO)c1O` [Compound 6, 2′-Sulfamoyl-biphenyl-4-carboxylic acid (5-hydroxy-4-hydroxymethyl-6-methyl-pyridin-3-ylmethyl)-amide], the inhibition at 250 µM in assay [4] (setting [5]) came to 0%; in assay [4] (setting [6]), 1%; in assay [4] (setting [7]), 5%; in assay [4] (setting [8]), 0%. In addition, the IC50 in assay [1] was 306 µM; in assay [2] it was over 1000 µM; in assay [3], over 1000 µM.

On to `Cc1ncc(CO)c(CNc2ccc(-c3ccccc3S(=O)(=O)NC(C)(C)C)cc2)c1O` [Compound 7, 4′-[(3-Hydroxy-5-hydroxymethyl-2-methyl-pyridin-4-ylmethyl)-amino]-biphenyl-2-sulfonic acid tert-butylamide], for which the figures for the IC50 in assay [1], in assay [2] and in assay [3] were 197 µM, over 1000 µM and over 1000 µM, respectively.

On to `Cc1ncc(CO)c(CNc2ccc(-c3ccccc3S(N)(=O)=O)cc2)c1O` [Compound 8], for which the IC50 in assay [1], in assay [2] and in assay [3] was over 1000 µM each time.

`Cc1ncc(CNc2ccc(-c3ccccc3S(N)(=O)=O)cc2)c(CO)c1OCc1cccc(C(=N)N)c1` [Compound 14]: the inhibition at 250 µM in assay [4] (setting [5]) turned out to be 10%; in assay [4] (setting [6]) it was 9%; in assay [4] (setting [7]), 15%; in assay [4] (setting [8]) it was 5%. Moreover, the figures for the IC50 in assay [1], in assay [2] and in assay [3] were 15 µM, 862 µM and 12 µM, respectively.

For the compound `Cc1ncc(CNc2ccc(-c3ccccc3S(N)(=O)=O)cn2)c(CO)c1OCc1cccc(C(=N)N)c1` [Compound 16], the inhibition at 250 µM in assay [4] (setting [5]) is 3%; in assay [4] (setting [6]), 1.3%; in assay [4] (setting [7]), 14%; in assay [4] (setting [8]), 0%. The values for the IC50 in assay [1], in assay [2] and in assay [3] were 11 µM, over 1000 µM and 11 µM, respectively.

Turning to `Cc1ncc(CNc2cccc(-c3ccccc3S(N)(=O)=O)c2)c(CO)c1O` [Compound 21, 3′-[(5-Hydroxy-4-hydroxymethyl-6-methyl-pyridin-3-ylmethyl)-amino]-biphenyl-2-sulfonic acid amide], the inhibition at 250 µM in assay [4] (setting [5]) stood at 14%; in assay [4] (setting [6]), 0%; in assay [4] (setting [7]), 4%; in assay [4] (setting [8]) it was 0%. Also, the IC50 in assay [1] was 326 µM; in assay [2], over 1000 µM; in assay [3] it was over 1000 µM.

Take `Cc1ncc(CNC(=O)c2ccc(-c3ccccc3S(N)(=O)=O)cc2)c(CO)c1OCc1cccc(C(=N)N)c1` [Compound 23]: the IC50 in assay [1] is 5 µM; in assay [2], 97 µM; in assay [3], 24 µM.

With `Cc1ncc(CO)c(CNc2ccc(-c3ccccc3S(N)(=O)=O)cc2)c1OCc1cccc(C(=N)N)c1` [Compound 25, 3-{5-Hydroxymethyl-2-methyl-4-[(2′-sulfamoyl-biphenyl-4-ylamino)-methyl]-pyridin-3-yloxymethyl}-benzamidine], the IC50 was 4 µM in assay [1], over 1000 µM in assay [2] and 15 µM in assay [3].

Regarding `Cc1ncc(CO)c(CNc2cccc(-c3ccccc3S(N)(=O)=O)c2)c1OCc1ccc(C(=N)N)cc1` [Compound 28, 4-{5-Hydroxymethyl-2-methyl-4-[(2′-sulfamoyl-biphenyl-3-ylamino)-methyl]-pyridin-3-yloxymethyl}-benzamidine], the inhibition at 250 µM in assay [4] (setting [5]) stood at 26%; in assay [4] (setting [6]) it was 11%; in assay [4] (setting [7]) it was 10%; in assay [4] (setting [8]), 15%. Moreover, the IC50 in assay [1] came to 17 µM; in assay [2], 476 µM; in assay [3], 3 µM.

`Cc1ncc(CO)c(CNc2ccc(-c3ccccc3S(N)(=O)=O)cc2F)c1OCc1ccc(C(=N)N)cc1` [Compound 30, 4-{4-[(3-Fluoro-2′-sulfamoyl-biphenyl-4-ylamino)-methyl]-5-hydroxymethyl-2-methyl-pyridin-3-yloxymethyl}-benzamidine]: the inhibition at 100 µM was determined as 23% in assay [4] (setting [5]), 57% in assay [4] (setting [6]), 57% in assay [4] (setting [7]) and 19% in assay [4] (setting [8]). Further, the IC50 in assay [1] came to 18 µM; in assay [2] it was 171 µM; in assay [3], 4 µM.

In the case of `Cc1ncc(CNc2ccc(-c3ccccc3S(N)(=O)=O)cn2)c(CO)c1O` [Compound 31, 2-{6-[(5-Hydroxy-4-hydroxymethyl-6-methyl-pyridin-3-ylmethyl)-amino]-pyridin-3-yl}-benzenesulfonamide], the IC50 in assay [1], in assay [2] and in assay [3] was over 1000 µM each time.

Turning to `Cc1ncc(CO)c(CNc2cccc(-c3ccccc3S(N)(=O)=O)c2)c1O` [Compound 32, 3′-[(3-Hydroxy-5-hydroxymethyl-2-methyl-pyridin-4-ylmethyl)-amino]-biphenyl-2-sulfoniamide], the IC50 in assay [2] and in assay [3] was over 1000 µM each time.

Turning to `Cc1ncc(CNc2ccc(-c3ccc(C(=N)N)cc3)cc2)c(CO)c1O` [Compound 34, reference compound], the inhibition at 250 µM in assay [4] (setting [5]) was 63%; in assay [4] (setting [6]), 93%; in assay [4] (setting [7]) it was 41%; in assay [4] (setting [8]), 1%. For the same compound, the IC50 was 29 µM in assay [1], over 1000 µM in assay [2] and 4 µM in assay [3].
